Assay [1] addresses T1, thiol peroxidase HpTpx (Helicobacter pylori, UniProt O25151).
T1 sequence (O25151 2-166): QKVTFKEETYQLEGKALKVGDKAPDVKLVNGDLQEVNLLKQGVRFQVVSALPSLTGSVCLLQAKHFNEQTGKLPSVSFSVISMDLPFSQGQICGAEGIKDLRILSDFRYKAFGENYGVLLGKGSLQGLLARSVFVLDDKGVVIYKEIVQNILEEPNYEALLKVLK
Kind of assay: Gel-based in situ competitive labelling against Metro-P3 (ABPP). Format: cell-based. On the set-up: gene tpx; endogenous, H. pylori 26695 live cells.

Assay [2] deals with T2, 60 kDa chaperonin HpGroEL (Helicobacter pylori, UniProt P42383). The assay is described as above. Format: cell-based. The arrangement: gene groEL; endogenous, H. pylori 26695 live cells.
T2 sequence (P42383 whole entry): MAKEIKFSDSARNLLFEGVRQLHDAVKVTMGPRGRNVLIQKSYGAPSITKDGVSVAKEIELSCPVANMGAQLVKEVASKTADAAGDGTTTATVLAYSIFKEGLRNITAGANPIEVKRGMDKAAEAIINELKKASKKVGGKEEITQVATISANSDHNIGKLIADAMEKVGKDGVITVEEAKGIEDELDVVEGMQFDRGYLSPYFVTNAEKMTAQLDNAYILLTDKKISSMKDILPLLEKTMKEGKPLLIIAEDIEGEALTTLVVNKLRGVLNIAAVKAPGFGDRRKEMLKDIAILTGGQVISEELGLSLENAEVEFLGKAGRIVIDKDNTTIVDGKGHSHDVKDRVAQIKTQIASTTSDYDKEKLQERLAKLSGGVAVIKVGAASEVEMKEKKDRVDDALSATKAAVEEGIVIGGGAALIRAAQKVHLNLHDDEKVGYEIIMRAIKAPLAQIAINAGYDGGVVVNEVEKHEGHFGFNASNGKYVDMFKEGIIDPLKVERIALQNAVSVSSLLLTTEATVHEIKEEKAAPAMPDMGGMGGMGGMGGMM
Assay [3] deals with T1, thiol peroxidase HpTpx. Briefly: Intact protein MS and peroxidase assay of modified enzyme; EC50 is from in situ competition with Metro-P3 in H. pylori. It counts as cell-based. On the set-up: gene tpx; recombinant HpTpx wild type, modified during anaerobic expression in E. coli.
In assay [4] the target is T3, thiol peroxidase HpTpx (Helicobacter pylori, UniProt O25151, C94A).
T3 construct: gene tpx
Kind of assay: X-ray co-crystal structure, […] Å (reduced amine form Metro*). It counts as binding.

Assay [5] concerns the target T2, 60 kDa chaperonin HpGroEL. Briefly: Intact protein MS and malachite green ATPase assay of modified enzyme; EC50 is from in situ competition with Metro-P3 in H. pylori. On the set-up: gene groEL; recombinant HpGroEL, modified during anaerobic expression in E. coli. Format: cell-based.
Assay [6] concerns the target T1, thiol peroxidase HpTpx. Briefly: In situ ABPP labelling ([…]), gel and LC-MS/MS, competed by Metro. On the set-up: gene tpx; endogenous, H. pylori 26695 live cells. It counts as cell-based.
Assay [7] deals with T2, 60 kDa chaperonin HpGroEL. The assay is described as above. It counts as cell-based. The arrangement: gene groEL; endogenous, H. pylori 26695 live cells.

pEC50: −log10 of the molar value.

Usually pEC50 stands for the negative decadic logarithm of the EC50, by convention in mol/L. Consider `CCOCCn1c([N+](=O)[O-])cnc1C` [MF-03], for which the values for the pEC50 (at thiol peroxidase HpTpx [1]; in assay [2]) were 4.77 and 4.40, respectively.
In the case of `Cc1ncc([N+](=O)[O-])n1CCO` [Metro, Metronidazole], the pEC50 on thiol peroxidase HpTpx [3] was 3.60; in assay [5] it was 4.62. In addition, the “X-ray co-crystal structure, 1.75 Å (reduced amine form Metro*)” value on thiol peroxidase HpTpx [4] is given as “forms an irreversible thioether bond with the CP residue”.
Consider `C#CCOCCn1c([N+](=O)[O-])cnc1C` [Metro-P1], for which the “In situ ABPP labelling (1 μM), gel and LC-MS/MS, competed by Metro” value was 18-kDa HpTpx band was solely diminished in case of ether derivatives Metro-P1 and Metro-P3 upon Metro pre-incubation on thiol peroxidase HpTpx [6]; “a 60-kDa band decreased for all three probes” in assay [7].
